IC50 data for 6 molecules are collected here from BindingDB's records for doi:10.1021/jm050513m (The University of Texas At Houston, 2005).

“And” between values parts separate entries of the source, which are not always exact repeats. Equal values may be shown once. Numbered stars: 1 amine (or outer) side, 2 acyl side, 3 side chain; on linkers, the order of the positions; unused ones are H or OH. Square brackets hold non-standard residues; d marks the D form. Peptide text beside a SMILES is read from it. ξ: configuration not given here. pY = N[C@@H](Cc1ccc(OP(=O)(O)O)cc1)C(=O)O; Met(O2) = CS(=O)(=O)CC[C@H](N)C(=O)O; X2 = O=C([C@H]1CCCN([*:1])C1)[*:2]; Thr(3ξ) = CC(O)[C@H](N)C(=O)O; αMeP = C[C@@]1(C(=O)O)CCCN1

For one assay, the target named is Signal transducer and activator of transcription 3 (Mus musculus, UniProt P42227). Put plainly: Fluorescence Polarization Assay.
Sequence of Signal transducer and activator of transcription 3 (P42227 whole entry): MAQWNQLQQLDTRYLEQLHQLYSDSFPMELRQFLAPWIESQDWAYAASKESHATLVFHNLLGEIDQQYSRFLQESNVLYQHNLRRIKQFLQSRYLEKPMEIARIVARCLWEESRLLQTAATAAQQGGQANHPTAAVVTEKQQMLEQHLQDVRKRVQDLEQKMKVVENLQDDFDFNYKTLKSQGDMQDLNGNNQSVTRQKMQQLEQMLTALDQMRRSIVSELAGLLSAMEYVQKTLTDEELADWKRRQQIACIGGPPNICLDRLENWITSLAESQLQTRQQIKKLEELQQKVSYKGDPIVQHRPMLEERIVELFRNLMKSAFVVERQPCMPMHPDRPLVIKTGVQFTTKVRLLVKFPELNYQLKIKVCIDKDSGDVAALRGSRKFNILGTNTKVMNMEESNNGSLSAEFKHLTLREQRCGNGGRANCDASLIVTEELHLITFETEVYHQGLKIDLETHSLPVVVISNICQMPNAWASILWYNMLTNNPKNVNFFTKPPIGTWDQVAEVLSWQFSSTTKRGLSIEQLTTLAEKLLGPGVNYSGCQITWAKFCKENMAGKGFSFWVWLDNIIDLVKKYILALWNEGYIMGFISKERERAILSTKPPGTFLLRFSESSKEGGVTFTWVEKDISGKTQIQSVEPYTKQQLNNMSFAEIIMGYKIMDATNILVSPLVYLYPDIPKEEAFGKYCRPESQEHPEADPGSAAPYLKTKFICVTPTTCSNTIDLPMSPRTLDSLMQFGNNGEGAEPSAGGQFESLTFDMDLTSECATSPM
Details: not given
The procedure: Fluorescence polarization (FP) binding assay is utilizing the intrinsic property of the fluorescent probe, which will have low polarization value when free in solution. On binding to a target, the polarization of the probe will increase. Reaction mixtures of full length STAT3 alpha and the probe were placed in wells of a 96-well microtiter plate. The test peptide solution was added to each well. Fluorescence polarization was then read in a Tecan Polarian plate reader. The IC50 values were obtained from nonlinear regression analysis in the one-site competition mode. Peptides were assayed three times using three separate Stat3-probe preparations. IC50 values are reported as the mean of three IC50 values +/- the standard deviation.
Background: Fluorescence polarisation rises when a labelled molecule tumbles more slowly, as on binding a larger partner.
With `CC(=O)N[C@@H](Cc1ccc(OP(=O)(O)O)cc1)C(=O)N[C@@H](CC(C)C)C(=O)N1CCC[C@H]1C(=O)N1CCC(CC(N)=O)C1` (stereo partly drawn) [4-[(2S)-2-{[(2S)-1-[(2S)-2-{[3-(carbamoylmethyl)pyrrolidin-1-yl]carbonyl}pyrrolidin-1-yl]-4-methyl-1-oxopentan-2-yl]carbamoyl}-2-acetamidoethyl]phenoxyphosphonic acid], the IC50 (as a rule, the concentration that gives 50% inhibition) came to 1.69 µM.

Consider `CC(=O)N[C@@H](Cc1ccc(OP(=O)(O)O)cc1)C(=O)N[C@@H](CC(C)C)C(=O)N1CCC[C@H]1C(=O)NC1CCCC(C(N)=O)C1` (stereo partly drawn) [4-[(2S)-2-{[(2S)-1-[(2S)-2-[(3-carbamoylcyclohexyl)carbamoyl]pyrrolidin-1-yl]-4-methyl-1-oxopentan-2-yl]carbamoyl}-2-acetamidoethyl]phenoxyphosphonic acid], for which inhibition was half-maximal at 9.81 µM (IC50).

Staying with this assay, now noted: pH 7.5; 22 °C.
As for `CC(=O)N[C@@H](Cc1ccc(OP(=O)(O)O)cc1)C(=O)N[C@@H](CC(C)C)C(=O)N1CCC[C@H]1C(=O)N[C@@H](CCS(C)(=O)=O)C(=O)N[C@H](C(N)=O)C(C)O` (stereo partly drawn) [4-[(2S)-2-{[(2S)-1-[(2S)-2-{[(1S)-1-{[(1S,2S)-1-carbamoyl-2-hydroxypropyl]carbamoyl}-3-methanesulfonylpropyl]carbamoyl}pyrrolidin-1-yl]-4-methyl-1-oxopentan-2-yl]carbamoyl}-2-acetamidoethyl]phenoxyphosphonic acid] (Ac-[pY]LP[Met(O2)][Thr(3ξ)]-NH2), the IC50 was 13.9 µM.

Take `CC(=O)N[C@@H](Cc1ccc(OP(=O)(O)O)cc1)C(=O)N[C@@H](CC(C)C)C(=O)N1CCC[C@H](C(=O)N[C@@H](CCC(N)=O)C(=O)N[C@H](C(N)=O)C(C)O)C1` (stereo partly drawn) [23, Ac-pTyr-Leu-Nip-Gln-Thr-NH2-2] (Ac-[pY]L[X2]Q[Thr(3ξ)]-NH2): the IC50 was 38.6 µM and 33.1 µM.

Turning to `CC(=O)N[C@@H](Cc1ccc(OP(=O)(O)O)cc1)C(=O)N[C@@H](CC(C)C)C(=O)N1CCC[C@H]1C(=O)N[C@@H](CCC(N)=O)C(=O)N[C@H](C(N)=O)C(C)O` (stereo partly drawn) [4-[(2S)-2-{[(2S)-1-[(2S)-2-{[(1S)-3-carbamoyl-1-{[(1S,2S)-1-carbamoyl-2-hydroxypropyl]carbamoyl}propyl]carbamoyl}pyrrolidin-1-yl]-4-methyl-1-oxopentan-2-yl]carbamoyl}-2-acetamidoethyl]phenoxyphosphonic acid], the IC50 worked out at 0.739 µM. This counts as sub-micromolar.

As for `CC(=O)N[C@@H](Cc1ccc(OP(=O)(O)O)cc1)C(=O)N[C@@H](CC(C)C)C(=O)N1CCC[C@@]1(C)C(=O)N[C@@H](CCC(N)=O)C(=O)N[C@H](C(N)=O)C(C)O` (stereo partly drawn) [4-[(2S)-2-{[(2S)-1-[(2S)-2-{[(1S)-3-carbamoyl-1-{[(1S,2S)-1-carbamoyl-2-hydroxypropyl]carbamoyl}propyl]carbamoyl}-2-methylpyrrolidin-1-yl]-4-methyl-1-oxopentan-2-yl]carbamoyl}-2-acetamidoethyl]phenoxyphosphonic acid] (Ac-[pY]L[αMeP]Q[Thr(3ξ)]-NH2), the IC50 is 1.87 µM.
